Laboratory results published in patent publication US12568964B2 (priority 2019, dated 2026).
Read-outs that look alike come from different tables or passages of the source.

Tested on: Xylella fastidiosa
Format: in vivo
Conditions: 5 treatments; for Phenotypic improvement of infected olive plants after treatment: 5% w/v, sprayed on foliage, trunk and adjacent soil; for State of treated plants at 9 months after the treatment: 5% w/v in bidistilled water, 9 months after treatment

Row | Compound | Phenotypic improvement of infected olive plants after treatment (Example 3.1: three olive trees, 200 mg per plant suspended in bidistilled water, one every 5 days) | State of treated plants at 9 months after the treatment (Example 3.1: three olive trees, 200 mg per plant, one every 5 days) | Phenotypic improvement of infected olive plants after treatment (Example 3.4: four olive trees, 150 mg per plant suspended in bidistilled water, one every 5 days) | State of treated plants at 9 months after the treatment (Example 3.4: four olive trees, 150 mg per plant)
1 | 5-hydroxy-naphthalen-1,4-dione complexed with copper | Phenotypic improvements of the plant were observed with the birth of new shoots on the branches previously in a state of desiccation and disappearance of the crumpled and yellowish colored leaves | still free of crumpled and yellowish colored leaves and dried branches | – | –
2 | O=C1C=CC(=O)c2c(O)cccc21 [5-hydroxy-naphthalene-1,4-dione] | – | – | Phenotypic improvements of the plant were observed with the birth of new shoots on the branches previously in a state of desiccation and disappearance of the crumpled and yellowish colored leaves | still free of crumpled and yellowish colored leaves and dried branches
